# Values quoted from earlier work, collected in US20220273570A1, “Self-Microemulsifying Multi-Deliverable Systems” (Quicksilver Scientific, Inc., priority 2019, published 2022).
# Read-outs that look alike come from different tables or passages of the source.
# Legend:
# [1] = oral; extensively metabolized into glucuronide conjugate
# [2] = up to
# [3] = rats, oral
# [4] = system: human hepatoma cell line (HepG2)
structure (smiles),measurement,setting,value
"Oc1ccc(/C=C/c2cc(O)cc(O)c2)cc1 [resveratrol, 3,5,4′-trihydroxy-trans-stilbene]",bioavailability,[1],about 0.5%
C[C@]12CC[C@H](O)CC1=CC[C@@H]1[C@@H]2CC[C@]2(C)C(=O)CC[C@@H]12 [DHEA],solubility in MCT oil,[2]; MCT oil,approximately 10 mg/mL
same,solubility in ethanol,[2]; ethanol,approximately 150 mg/mL
O=c1c(O)c(-c2ccc(O)c(O)c2)oc2cc(O)cc(O)c12 [quercetin],elimination half-life,after oral ingestion of quercetin containing foods or supplements,1 to 2 h
same,bioavailability,"humans, low and highly variable",0-50%
COc1cc(/C=C/C(=O)CC(=O)/C=C/c2ccc(O)c(OC)c2)ccc1O [curcumin],bioavailability of orally administered solid curcumin powder,[3],1%
COc1cc(/C=C/C(=O)CC(=O)/C=C/c2ccc(O[C@@H]3O[C@H](C(=O)O)[C@@H](O)[C@H](O)[C@H]3O)c(OC)c2)ccc1O [curcumin-glucuronide],effects on gene expression compared with free curcumin,[4],weaker
